Measurements from ChEMBL document CHEMBL3994622, “Design and synthesis of new RAF kinase-inhibiting antiproliferative quinoline derivatives. Part 2: Diarylurea derivatives” (Eur J Med Chem, 2017).

Tests used:
Format in all cases: functional
MDA-MB-468 = assay: Growth inhibition of human MDA-MB-468 cells incubated for 48 hrs by sulforhodamine B assay; conditions: MDA-MB-468, 48 h
NCI-H226 = assay: Growth inhibition of human NCI-H226 cells assessed as cell growth at 0.01 uM incubated for 48 hrs by sulforhodamine B assay relative to control; conditions: NCI-H226, 48 h, read-out: Activity
NCI-H522 [1] = assay: Growth inhibition of human NCI-H522 cells assessed as cell growth at 0.01 uM incubated for 48 hrs by sulforhodamine B assay relative to control; conditions: NCI-H522, 48 h, read-out: Activity
COLO 205 = assay: Growth inhibition of human COLO205 cells assessed as cell growth at 0.01 uM incubated for 48 hrs by sulforhodamine B assay relative to control; conditions: COLO 205, 48 h, read-out: Activity
DU-145 [2] = assay: Growth inhibition of human DU145 cells assessed as cell growth at 0.01 uM incubated for 48 hrs by sulforhodamine B assay relative to control; conditions: DU-145, 48 h, read-out: Activity
OVCAR-3 = assay: Growth inhibition of human OVCAR3 cells assessed as cell growth at 0.1 uM incubated for 48 hrs by sulforhodamine B assay relative to control; conditions: OVCAR-3, 48 h, read-out: Activity
CAKI-1 [3] = assay: Growth inhibition of human Caki1 cells assessed as cell growth at 0.1 uM incubated for 48 hrs by sulforhodamine B assay relative to control; conditions: CAKI-1, 48 h, read-out: Activity
NCI-H460 [4] = assay: Growth inhibition of human NCI-H460 cells assessed as cell growth at 1 uM incubated for 48 hrs by sulforhodamine B assay relative to control; conditions: NCI-H460, 48 h, read-out: Activity
IGROV-1 [5] = assay: Growth inhibition of human IGROV1 cells assessed as cell growth at 1 uM incubated for 48 hrs by sulforhodamine B assay relative to control; conditions: IGROV-1, 48 h, read-out: Activity
CAKI-1 [6] = assay: Growth inhibition of human Caki1 cells assessed as cell growth at 1 uM incubated for 48 hrs by sulforhodamine B assay relative to control; conditions: CAKI-1, 48 h, read-out: Activity
RXF 393 = assay: Growth inhibition of human RXF393 cells assessed as cell growth at 1 uM incubated for 48 hrs by sulforhodamine B assay relative to control; conditions: RXF 393, 48 h, read-out: Activity
Hs-578T = assay: Growth inhibition of human Hs 578T cells assessed as cell growth at 1 uM incubated for 48 hrs by sulforhodamine B assay relative to control; conditions: read-out: Activity
BT-549 = assay: Growth inhibition of human BT549 cells assessed as cell growth at 1 uM incubated for 48 hrs by sulforhodamine B assay relative to control; conditions: BT-549, 48 h, read-out: Activity
HT-29 = assay: Growth inhibition of human HT-29 cells assessed as cell growth at 10 uM incubated for 48 hrs by sulforhodamine B assay relative to control; conditions: HT-29, 48 h, read-out: Activity
A498 [7] = assay: Growth inhibition of human A498 cells assessed as cell growth at 10 uM incubated for 48 hrs by sulforhodamine B assay relative to control; conditions: A498, 48 h, read-out: Activity
EKVX = assay: Growth inhibition of human EKVX cells assessed as cell growth at 100 uM incubated for 48 hrs by sulforhodamine B assay relative to control; conditions: read-out: Activity
HOP-92 [8] = assay: Growth inhibition of human HOP92 cells assessed as cell growth at 100 uM incubated for 48 hrs by sulforhodamine B assay relative to control; conditions: HOP-92, 48 h, read-out: Activity
SR [9] = assay: Growth inhibition of human SR cells assessed as cell growth at 0.003 uM incubated for 48 hrs by sulforhodamine B assay relative to control; conditions: read-out: Activity
NCI-H460 [10] = assay: Growth inhibition of human NCI-H460 cells assessed as cell growth at 0.003 uM incubated for 48 hrs by sulforhodamine B assay relative to control; conditions: NCI-H460, 48 h, read-out: Activity
A498 [11] = assay: Growth inhibition of human A498 cells assessed as cell growth at 0.003 uM incubated for 48 hrs by sulforhodamine B assay relative to control; conditions: A498, 48 h, read-out: Activity
SR [12] = assay: Growth inhibition of human SR cells assessed as cell growth at 0.03 uM incubated for 48 hrs by sulforhodamine B assay relative to control; conditions: read-out: Activity
NCI-H522 [13] = assay: Growth inhibition of human NCI-H522 cells assessed as cell growth at 0.03 uM incubated for 48 hrs by sulforhodamine B assay relative to control; conditions: NCI-H522, 48 h, read-out: Activity
SW-620 = assay: Growth inhibition of human SW620 cells assessed as cell growth at 0.03 uM incubated for 48 hrs by sulforhodamine B assay relative to control; conditions: SW-620, 48 h, read-out: Activity
UACC-62 = assay: Growth inhibition of human UACC62 cells assessed as cell growth at 0.03 uM incubated for 48 hrs by sulforhodamine B assay relative to control; conditions: UACC-62, 48 h, read-out: Activity
CAKI-1 [14] = assay: Growth inhibition of human Caki1 cells assessed as cell growth at 0.03 uM incubated for 48 hrs by sulforhodamine B assay relative to control; conditions: CAKI-1, 48 h, read-out: Activity
MDA-MB-231 = assay: Growth inhibition of human MDA-MB-231 cells assessed as cell growth at 0.03 uM incubated for 48 hrs by sulforhodamine B assay relative to control; conditions: MDA-MB-231, 48 h, read-out: Activity
SK-MEL-28 = assay: Growth inhibition of human SK-MEL-28 cells assessed as cell growth at 0.3 uM incubated for 48 hrs by sulforhodamine B assay relative to control; conditions: SK-MEL-28, 48 h, read-out: Activity
IGROV-1 [15] = assay: Growth inhibition of human IGROV1 cells assessed as cell growth at 0.3 uM incubated for 48 hrs by sulforhodamine B assay relative to control; conditions: IGROV-1, 48 h, read-out: Activity
PC-3 = assay: Growth inhibition of human PC3 cells assessed as cell growth at 0.3 uM incubated for 48 hrs by sulforhodamine B assay relative to control; conditions: PC-3, 48 h, read-out: Activity
HOP-92 [16] = assay: Growth inhibition of human HOP92 cells assessed as cell growth at 3 uM incubated for 48 hrs by sulforhodamine B assay relative to control; conditions: HOP-92, 48 h, read-out: Activity
A498 [17] = assay: Growth inhibition of human A498 cells assessed as cell growth at 3 uM incubated for 48 hrs by sulforhodamine B assay relative to control; conditions: A498, 48 h, read-out: Activity
CAKI-1 [18] = assay: Growth inhibition of human Caki1 cells assessed as cell growth at 3 uM incubated for 48 hrs by sulforhodamine B assay relative to control; conditions: CAKI-1, 48 h, read-out: Activity
Malme-3M = assay: Growth inhibition of human MALME-3M cells assessed as cell growth at 30 uM incubated for 48 hrs by sulforhodamine B assay relative to control; conditions: read-out: Activity
IGROV-1 [19] = assay: Growth inhibition of human IGROV1 cells assessed as cell growth at 30 uM incubated for 48 hrs by sulforhodamine B assay relative to control; conditions: IGROV-1, 48 h, read-out: Activity
OVCAR-4 = assay: Growth inhibition of human OVCAR4 cells assessed as cell growth at 30 uM incubated for 48 hrs by sulforhodamine B assay relative to control; conditions: OVCAR-4, 48 h, read-out: Activity
DU-145 [20] = assay: Growth inhibition of human DU145 cells assessed as cell growth at 30 uM incubated for 48 hrs by sulforhodamine B assay relative to control; conditions: DU-145, 48 h, read-out: Activity

Row | SMILES | GI50 (MDA-MB-468) [µM] | TGI (MDA-MB-468) [µM] | growth at 0.01 µM (NCI-H226) [%] | growth at 0.01 µM (NCI-H522 [1]) [%] | growth at 0.01 µM (COLO 205) [%] | growth at 0.01 µM (DU-145 [2]) [%] | growth at 0.1 µM (OVCAR-3) [%] | growth at 0.1 µM (CAKI-1 [3]) [%] | growth at 1 µM (NCI-H460 [4]) [%] | growth at 1 µM (IGROV-1 [5]) [%] | growth at 1 µM (CAKI-1 [6]) [%] | growth at 1 µM (RXF 393) [%] | growth at 1 µM (Hs-578T) [%] | growth at 1 µM (BT-549) [%] | growth at 10 µM (HT-29) [%] | growth at 10 µM (A498 [7]) [%] | growth at 100 µM (EKVX) [%] | growth at 100 µM (HOP-92 [8]) [%] | growth at 0.003 µM (SR [9]) [%] | growth at 0.003 µM (NCI-H460 [10]) [%] | further results
1 | COc1cc2cc(Oc3ccc(NC(=O)Nc4cc(C(F)(F)F)cc(C(F)(F)F)c4)cc3)c(C)nc2cc1OC | 1.08 | 3.96 | 103 | 92 | 93 | 103 | 101 | 90 | 49 | 31 | 63 | 93 | 101 | 86 | -64 | -43 | -94 | -58 |  |  | 
2 | Cc1nc2cc(O)c(O)cc2cc1Oc1ccc(NC(=O)Nc2ccc(Cl)c(Cl)c2)cc1 | 6.99 | 17.4 |  |  |  |  |  |  |  |  |  |  |  |  |  |  |  |  | 100 | 102 | CC50 (MDA-MB-468; read-out: LC50 (the source's name)): > 32.5 µM; growth at 0.003 µM (A498 [11]): 85%; growth at 0.03 µM (SR [12]): 99%; growth at 0.03 µM (NCI-H522 [13]): 95%; growth at 0.03 µM (SW-620): 97%; growth at 0.03 µM (UACC-62): 97%; growth at 0.03 µM (CAKI-1 [14]): 94%; growth at 0.03 µM (MDA-MB-231): 115%; growth at 0.3 µM (SK-MEL-28): 87%; growth at 0.3 µM (IGROV-1 [15]): 103%; growth at 0.3 µM (PC-3): 97%; growth at 3 µM (HOP-92 [16]): 48%; growth at 3 µM (A498 [17]): 79%; growth at 3 µM (CAKI-1 [18]): 62%; growth at 30 µM (Malme-3M): -10%; growth at 30 µM (IGROV-1 [19]): 17%; growth at 30 µM (OVCAR-4): 9%; growth at 30 µM (DU-145 [20]): -10%
3 | COc1cc2cc(Oc3ccc(NC(=O)Nc4ccc(Cl)c(Cl)c4)cc3)c(C)nc2cc1OC |  |  | 104 | 99 | 106 | 109 | 116 | 87 | 82 | 110 | 83 | 104 | 113 | 78 | -49 | -8 | -36 | -100 |  |  | 
4 | COc1cc2cc(Oc3ccc(NC(=O)Nc4ccc(Cl)c(C(F)(F)F)c4)cc3)c(C)nc2cc1OC |  |  |  |  |  |  |  |  |  |  |  |  |  |  |  |  |  |  | 99 | 106 | growth at 0.003 µM (A498 [11]): 91%; growth at 0.03 µM (SR [12]): 92%; growth at 0.03 µM (NCI-H522 [13]): 93%; growth at 0.03 µM (SW-620): 100%; growth at 0.03 µM (UACC-62): 92%; growth at 0.03 µM (CAKI-1 [14]): 96%; growth at 0.03 µM (MDA-MB-231): 92%; growth at 0.3 µM (SK-MEL-28): 91%; growth at 0.3 µM (IGROV-1 [15]): 117%; growth at 0.3 µM (PC-3): 83%; growth at 3 µM (HOP-92 [16]): -21%; growth at 3 µM (A498 [17]): 1%; growth at 3 µM (CAKI-1 [18]): -11%; growth at 30 µM (Malme-3M): -37%; growth at 30 µM (IGROV-1 [19]): -42%; growth at 30 µM (OVCAR-4): -62%; growth at 30 µM (DU-145 [20]): -70%
